From patent publication US20200129524A1, “PERSONALIZED CONTRACEPTIVE FORMULATIONS” (Agile Therapeutics, Inc., priority 2017, published 2020)
“And” between values parts separate entries of the source, which are not always exact repeats. Equal entries are not always repeated.

Key:
healthy women [1] = test: Clinical trial of contraceptive effectiveness of a transdermal patch (% of women pregnant by weight or BMI category); assay type: in vivo; conditions: 120 μg/d LNG + 30 μg/d EE patch, 13 cycles (one year)
Excerpt: To obtain the required data that would allow us to determine the personalized dosage of progestin required for each woman, we performed a clinical trial which is shown below as Example 1. When administered 120 micrograms per day of levonorgestrel (LNG), the number of women in each body weight category and the percent of the women in each category that became pregnant over a period of one year is shown in Table 1 and graphically depicted in FIG. 1.
In a clinical trial, 2032 healthy women, aged 18 and over, were enrolled in 102 investigative sites in the US. It was an open label, 13 cycle trial (one year) to study the effectiveness of a transdermal patch delivering 120 μg per day of levonorgestrel (LNG) and 30 μg per day of ethinyl estradiol (EE). The treatment regimen for each cycle was three consecutive 7-day patches (21 days) followed by one patch-free week.
The women enrolled in the different weight categories (in pounds) are shown in the second column of Table 1.
The percentage of women that became pregnant over the 13 cycle period is shown in column 3 of Table 1. A graph of the percentage of women that became pregnant in each weight category is also graphically illustrated in FIG. 1.
The same analysis was performed using the BMI of the women enrolled in the trial.

healthy women [2] = test: LNG level and required dose calculated from the trial's pregnancy rates (equations 2-4); assay type: in vivo; conditions: for LNG Level / Required Dose: 30 μg/day EE; for LNG Required Dose: range for pregnancy rates between 3% and 1.5%, EE 30 ug/day
Excerpt: There is an important unmet need pertaining to the determination of the amount of progestin required to provide contraceptive effectiveness to all women based on their BMI or body weight. Without intending to be bound to a particular understanding of mechanism of action, this invention is premised in part on the understanding that contraceptive effectiveness is based on the principle that there is a physical reaction or binding of a drug to its receptor and that therefore drug concentration will play an important part in contraceptive effectiveness. Further, by knowing the effect of a progestin amount (drug concentration) on contraceptive effectiveness on different BMI or body weight women, we can determine the amounts needed to provide effectiveness for any woman of known BMI or body weight. Given that contraceptive hormones interact reversibly with their receptors and assuming the resultant effect is proportional to the receptors occupied, a relationship between the effect and the free concentration of drug can be written as (Goodman and Gilman's Pharmaceutical Basis of Therapeutics, 8th edition, p. 44) Effect=Maximal effect (D)/(Kd+D) (equation 1) Where D is the concentration of the circulating free drug and Kd is the dissociation constant for the drug-drug receptor complex, i.e., the ratio of the rate constants of the forward and dissociation binding reactions. The steady state concentration D of the circulating free drug in the plasma is correlated to the dosage rate, by the equation (Goodman and Gilman's Pharmaceutical Basis of Therapeutics, 8th edition, p. 21), Dosage Rate=CL×D (CL is the clearance and it is constant for any specific drug). Therefore D=Dosage rate/CL. Substituting this in equation 1 one obtains Effect=Maximal effect×Dosage rate/CL/(Kd+Dosage rate/CL) (equation 2) […] Note that when equation 3 is substituted into equation 2 the clearance CL cancels out and is not involved in the calculations. Using the above formulas and isolating for D yields this equation: D=(Kd*Effect)/(1−Effect) (equation 4) […] They represent the relative dosage compared to that of the women in the 90 to 120 pound category (i.e. those that had 1.5% pregnancy rate). […] Therefore, D=(1.827*0.973)/(0.027) (equation 5) D=67 μg/day (equation 6) Required Dose=120×120/67=215 (equation 7). We consider the maximum acceptable percent pregnancy for 100 women over a period of one year to be 3%. […] The same analysis can be performed using the BMI of the women. […] The same analysis as performed for the required dosage based on women's body weight was performed using BMI and the data are shown in Tables 4 and 5 and plotted in FIG. 4. Although it may be easier for the medical practitioner to use the body weight of the subject in the treatment process, they can also use the BMI. It is therefore another object of the invention to treat women in a personalized manner depending on their BMI.

[3] = Free LNG circulating in plasma versus EE delivered (WO2016187269)
Description: However, ethinyl estradiol binds to SHBG and in the process it releases some of the bound LNG. Therefore if more or less than about 30 μg of EE are delivered from the contraceptive formulation, the required levels shown in FIGS. 3, 3a and 3b will have to be modified accordingly. […] Therefore the levels of required LNG can be calculated for any level of accompanied EE.

[4] = 1.5% pregnancy rate, BMI >17.5 ≤ 22.5
[5] = 1.5% pregnancy rate, BMI >22.5 ≤ 27.5
[6] = 1.5% pregnancy rate, BMI >27.5 ≤ 32.5
[7] = 1.5% pregnancy rate, BMI >32.5 ≤ 37.5
[8] = 1.5% pregnancy rate, BMI >37.5 ≤ 42.5
[9] = 1.5% pregnancy rate, BMI >42.5 ≤ 47.5
[10] = 1.5% pregnancy rate, BMI >47.5 ≤ 52.5
[11] = 1.5% pregnancy rate, weight 90 ≥ W <120 lbs
[12] = 1.5% pregnancy rate, weight 120 ≥ W <150 lbs
[13] = 1.5% pregnancy rate, weight 150 ≥ W <180 lbs
[14] = 1.5% pregnancy rate, weight 180 ≥ W <210 lbs
[15] = 1.5% pregnancy rate, weight 210 ≥ W <240 lbs
[16] = 1.5% pregnancy rate, weight 240 ≥ W <270 lbs
[17] = 1.5% pregnancy rate, weight 270 ≥ W lbs
[18] = 3% pregnancy rate, BMI >17.5 ≤ 22.5
[19] = 3% pregnancy rate, BMI >22.5 ≤ 27.5
[20] = 3% pregnancy rate, BMI >27.5 ≤ 32.5
[21] = 3% pregnancy rate, BMI >32.5 ≤ 37.5
[22] = 3% pregnancy rate, BMI >37.5 ≤ 42.5
[23] = 3% pregnancy rate, BMI >42.5 ≤ 47.5
[24] = 3% pregnancy rate, BMI >47.5 ≤ 52.5
[25] = 3% pregnancy rate, weight 90 ≥ W <120 lbs
[26] = 3% pregnancy rate, weight 120 ≥ W <150 lbs
[27] = 3% pregnancy rate, weight 150 ≥ W <180 lbs
[28] = 3% pregnancy rate, weight 180 ≥ W <210 lbs
[29] = 3% pregnancy rate, weight 210 ≥ W <240 lbs
[30] = 3% pregnancy rate, weight 240 ≥ W <270 lbs
[31] = 3% pregnancy rate, weight 270 ≥ W lbs

## C#C[C@]1(O)CC[C@H]2[C@@H]3CCC4=CC(=O)CC[C@@H]4[C@H]3CC[C@@]21CC [LNG, levonorgestrel]
Healthy women [1]; weight category >90 but ≤ 120 pounds
  % of pregnancies: 1.5%
Healthy women [1]; weight category >120 but ≤ 150 pounds
  % of pregnancies: 2.66%
Healthy women [2]; [4]
  LNG Level: 74.7 µg/day
  Required Dose: 192 µg/day
Healthy women [2]; [5]
  LNG Level: 52.7 µg/day
  Required Dose: 273 µg/day
Healthy women [2]; [6]
  LNG Level: 67.1 µg/day
  Required Dose: 215 µg/day
Healthy women [2]; [7]
  LNG Level: 41.1 µg/day
  Required Dose: 350 µg/day
Healthy women [2]; [8]
  LNG Level: 26.6 µg/day
  Required Dose: 541 µg/day
Healthy women [2]; [9]
  LNG Level: 38.9 µg/day
  Required Dose: 370 µg/day
Healthy women [2]; [10]
  LNG Level: 25.6 µg/day
  Required Dose: 563 µg/day
Healthy women [2]; [11]
  LNG Level: 120.0 µg/day
  Required Dose: 120 µg/day
Healthy women [2]; [12]
  LNG Level: 67 µg/day and 66.9 µg/day
  Required Dose: 215 µg/day and 210 µg/day
Healthy women [2]; [13]
  LNG Level: 46.1 µg/day
  Required Dose: 312 µg/day
Healthy women [2]; [14]
  LNG Level: 39.6 µg/day
  Required Dose: 364 µg/day
Healthy women [2]; [15]
  LNG Level: 45.4 µg/day
  Required Dose: 317 µg/day
Healthy women [2]; [16]
  LNG Level: 31.5 µg/day
  Required Dose: 457 µg/day
Healthy women [2]; [17]
  LNG Level: 34.1 µg/day
  Required Dose: 422 µg/day
Healthy women [2]; [18]
  LNG Level: 152.0 µg/day
  Required Dose: 95 µg/day
Healthy women [2]; [19]
  LNG Level: 106.9 µg/day
  Required Dose: 135 µg/day
Healthy women [2]; [20]
  LNG Level: 136.1 µg/day
  Required Dose: 106 µg/day
Healthy women [2]; [21]
  LNG Level: 83.3 µg/day
  Required Dose: 173 µg/day
Healthy women [2]; [22]
  LNG Level: 53.8 µg/day
  Required Dose: 267 µg/day
Healthy women [2]; [23]
  LNG Level: 79 µg/day
  Required Dose: 182 µg/day
Healthy women [2]; [24]
  LNG Level: 51.8 µg/day
  Required Dose: 278 µg/day
Healthy women [2]; [25]
  LNG Level: 241.7 µg/day
  Required Dose: 59 µg/day
Healthy women [2]; [26]
  LNG Level: 135.6 µg/day
  Required Dose: 104 µg/day
Healthy women [2]; [27]
  LNG Level: 93.5 µg/day
  Required Dose: 154 µg/day
Healthy women [2]; [28]
  LNG Level: 80.3 µg/day
  Required Dose: 179 µg/day
Healthy women [2]; [29]
  LNG Level: 92.0 µg/day
  Required Dose: 156 µg/day
Healthy women [2]; [30]
  LNG Level: 63.8 µg/day
  Required Dose: 226 µg/day
Healthy women [2]; [31]
  LNG Level: 69.2 µg/day
  Required Dose: 208 µg/day
Healthy women [2]; BMI >17.5 ≤ 22.5
  LNG Required Dose: 95 to 192 µg/day
Healthy women [2]; BMI >22.5 ≤ 27.5
  LNG Required Dose: 135 to 273 µg/day
Healthy women [2]; BMI >27.5 ≤ 32.5
  LNG Required Dose: 106 to 215 µg/day
Healthy women [2]; BMI >32.5 ≤ 37.5
  LNG Required Dose: 173 to 350 µg/day
Healthy women [2]; BMI >37.5 ≤ 42.5
  LNG Required Dose: 267 to 541 µg/day
Healthy women [2]; BMI >42.5 ≤ 47.5
  LNG Required Dose: 182 to 370 µg/day
Healthy women [2]; BMI >47.5 ≤ 52.5
  LNG Required Dose: 278 to 563 µg/day
[3]; for every 10 μg per day of EE delivered
  increase of free LNG as share of the approximate steady state level: 20%
[3]; for every one μg per day reduction or increase of EE below or above 30 μg per day
  change of free LNG in the plasma: 30 picograms per ml
